Where “and” joins values, the source holds several entries; their conditions need not be identical. Equal entries are not always repeated.
Columns and labels:
Format in all cases: cell-based, rat
p53 = experiment: Western blotting of apoptotic protein p53 in cell lysates; conditions: for p-53 amounts: INS-1 cells, normalized to β-actin; for amount of intracellular p53: control 1.06±0.00
Method: (§1) Trypsin is applied to 75 cm^2 flask containing INS-1 […] beta cells and it is centrifuged in 1500 rpm for 15 minutes. According to the density of pellet formed after centrifuge, it is centrifuged at 4 °C in 1500 rpm for 5 minutes by providing the washing with pipetting with PBS and transferring into 2 ml eppendorf. The supernatant was removed, lysis buffer was added according to the density of pellet and pipetting is performed carefully. It was left for 30 minutes on the ice by vortexing in every 10 minutes. Then the cells were allowed to lysis by ultrasonication for 10 seconds for 5 times, keeping on ice for 10 seconds and they were centrifuged at 4 °C in 13000 rpm for 10 minutes. The supernatant occurred was taken to 0,2 ml eppendorf tubes, and they were taken to -86 °C temperature. These operations were repeated for 3 times for each of the control and experiment groups.
(§2) Bradford method was used in order to determine the protein content. First, a standard curve was formed by using BSA (bovine serum albumin) having a concentration of 1.46 mg/ml. This curve was prepared as following: Bradford solution was added into 80 µg/ml, 40 µg/ml, 20 µg/ml, 10 µg/ml BSA, their absorbance was measured in 595 nm, it was diluted in a way that the lysates are 1/100 and 160 µl was taken, their absorbance in the same wavelengths was determined. After absorbance/concentration graph of the standards was obtained, the concentrations of the samples whose concentrations are […] were determined by using the slope equation of this graph.
(§3) Protein bands separated by electrophoresis in gel were transferred from the gel into nitrocellulose membrane. After membrane transferring operation, transfer efficiency was controlled for 15 minutes by using Ponceau S painting solution.
(§4) The membrane wherein the proteins were transferred, was incubated at room temperature for 1 hour with blocking solution prepared with skimmed milk powder. The membranes were incubated with primary antibodies suitable diluting ratios (Table 1) for 1 night at +4 °C, following the blocking operation. Following this operation, washed membranes were treated with peroxidase marked goat anti-rabbit secondary IgGs (Santa Cruz, CA, USA, sc-2004) at room temperature for 1 hour. Following the treatment with secondary antibodies of membranes, they were washed with washing solution and shaken with pure water. Then, the specific protein bands were monitored by KodakGL1500 gel monitoring system, by chemiluminescence method using Western Blotting Luminol Reagent (Santa Cruz, CA, USA, sc-2048) chemiluminescence substrate. Their densitometric analysis were performed by "Kodak Molecular Imaging Systems" software. The statistical analysis between the bands were performed by normalizing the band densities of the protein samples whose densitometric analysis were performed, to the density of β-actin protein. Table 1: The primary antibodies used in Western blotting method, the dilution ratios and periods thereof
(§5) In order to determine the apoptosis dose, p 53, cytochrome-c and active caspase-3 protein amounts were determined by western blotting method by obtaining lysate from the cells in which 0.75, 1,1.75,2,2.5 and 3 mM palmitic acid were applied. The graph obtained from western blotting bands and the calculation performed as a result of the analysis of these bands is shown in Figure 3.
(§6) The amount of intracellular proteins such as p53, cytochrome-c and active caspase-3 were observed by western blotting in order to examine the effect of curaglutide on apoptosis stimulated by 2 mM palmitic acid in INS-1 beta cells.

active caspase-3 = experiment: Western blotting of apoptotic protein active caspase-3 in cell lysates; conditions: for active caspase-3 amounts: INS-1 cells, normalized to β-actin; for amount of active caspase-3: control 1.07±0.01
Method: as §1, §2, §3, §4, §5, §6

LC3-II = experiment: Western blotting of autophagy marker LC3-II in cell lysates; conditions: for LC3-II amounts: INS-1 cells; for amount of intracellular LC3-II: control 0.44±0.00
Method: as §1, §2, §3, §4
In order to determine the autophagic dose, LC3-II protein amounts which are the autophagic markers were determined by western blotting method by obtaining lysate from the cells on which 0.75, 1, 1.75, 2, 2.5 and 3 mM palmitic acid was applied. The graph obtained from western blotting bands and the calculation performed as a result of the analysis of these bands is shown in Figure 2.
Intracellular LC3 protein amount was observed by western blotting in order to examine the effect of curaglutide on autophagy stimulated by 1,75 mM palmitic acid in INS-1 beta cells.

cytochrome-c = experiment: Western blotting of apoptotic protein cytochrome-c in cell lysates; conditions: for cytochrome-c amounts: INS-1 cells, normalized to β-actin; for amount of cytochrome-c: control 1.02±0.02
Method: as §1, §2, §3, §4, §5, §6

[1] = 10 nM curaglutide as curative agent, 2 mM palmitic acid (apoptotic dose)
[2] = 10 nM curaglutide as protector against 2 mM palmitic acid (apoptotic dose)

CCCCCCCCCCCCCCCC(=O)O [palmitic acid]
p-53 amounts (p53; 0.75 mM palmitic acid, control 1.04±0.00): 1.1±0.00
p-53 amounts (p53; 1 mM palmitic acid, control 1.04±0.00): 1.14±0.00
p-53 amounts (p53; 1.75 mM palmitic acid, control 1.04±0.00): 1.16±0.05
p-53 amounts (p53; 2 mM palmitic acid (apoptotic dose), control 1.04±0.00 / 1.06±0.00): 1.3±0.02 and 1.31±0.02
p-53 amounts (p53; 2.5 mM palmitic acid, control 1.04±0.00): 1.14±0.06
p-53 amounts (p53; 3 mM palmitic acid, control 1.04±0.00): 1.03±0.00
active caspase-3 amounts (active caspase-3; 0.75 mM palmitic acid, control 1.08±0.00): 1.03±0.03
active caspase-3 amounts (active caspase-3; 1 mM palmitic acid, control 1.08±0.00): 1.03±0.00
active caspase-3 amounts (active caspase-3; 1.75 mM palmitic acid, control 1.08±0.00): 1.02±0.05
active caspase-3 amounts (active caspase-3; 2 mM palmitic acid (apoptotic dose), control 1.08±0.00 / 1.07±0.01): 1.26±0.00 and 1.22±0.00
active caspase-3 amounts (active caspase-3; 2.5 mM palmitic acid, control 1.08±0.00): 1.15±0.03
active caspase-3 amounts (active caspase-3; 3 mM palmitic acid, control 1.08±0.00): 1.06±0.00
LC3-II amounts (LC3-II; 0.75 mM palmitic acid, band density normalized to β-actin, control 0.50±0.01): 0.60±0.00
LC3-II amounts (LC3-II; 1 mM palmitic acid, band density normalized to β-actin, control 0.50±0.01): 0.60±0.00
LC3-II amounts (LC3-II; 1.75 mM palmitic acid (autophagic dose), normalized to β-actin, control 0.50±0.01 / 0.44±0.00): 0.70±0.03 and 0.70±0.01
LC3-II amounts (LC3-II; 2 mM palmitic acid, band density normalized to β-actin, control 0.50±0.01): 0.52±0.02
LC3-II amounts (LC3-II; 2.5 mM palmitic acid, band density normalized to β-actin, control 0.50±0.01): 0.50±0.00
LC3-II amounts (LC3-II; 3 mM palmitic acid, band density normalized to β-actin, control 0.50±0.01): 0.49±0.01
cytochrome-c amounts (cytochrome-c; 0.75 mM palmitic acid, control 1.05±0.02): 1.07±0.02
cytochrome-c amounts (cytochrome-c; 1 mM palmitic acid, control 1.05±0.02): 1.06±0.01
cytochrome-c amounts (cytochrome-c; 1.75 mM palmitic acid, control 1.05±0.02): 1.07±0.05
cytochrome-c amounts (cytochrome-c; 2 mM palmitic acid (apoptotic dose), control 1.05±0.02 / 1.02±0.02): 1.23±0.00 and 1.22±0.00
cytochrome-c amounts (cytochrome-c; 2.5 mM palmitic acid, control 1.05±0.02): 1.11±0.04
cytochrome-c amounts (cytochrome-c; 3 mM palmitic acid, control 1.05±0.02): 1.09±0.02

CC[C@H](C)[C@H](NC(=O)[C@H](Cc1ccccc1)NC(=O)[C@H](CCC(=O)O)NC(=O)[C@H](CCCCN)NC(=O)[C@H](C)NC(=O)[C@H](C)NC(=O)[C@H](CCC(N)=O)NC(=O)CNC(=O)[C@H](CCC(=O)O)NC(=O)[C@H](CC(C)C)NC(=O)[C@H](Cc1ccc(O)cc1)NC(=O)[C@H](CO)NC(=O)[C@H](CO)NC(=O)[C@@H](NC(=O)[C@H](CC(=O)O)NC(=O)[C@H](CO)NC(=O)[C@@H](NC(=O)[C@H](Cc1ccccc1)NC(=O)[C@@H](NC(=O)CNC(=O)[C@H](CCC(=O)O)NC(=O)[C@H](C)NC(=O)[C@H](Cc1c[nH]cn1)NC(C)=O)[C@@H](C)O)[C@@H](C)O)C(C)C)C(=O)N[C@@H](C)C(=O)N[C@@H](Cc1c[nH]c2ccccc12)C(=O)N[C@@H](CC(C)C)C(=O)N[C@H](C(=O)N[C@@H](CCCCN)C(N)=O)C(C)C [curaglutide]
amount of intracellular p53 (p53; [1]): 0.65±0.13
amount of intracellular p53 (p53; [2]): 0.54±0.24
amount of active caspase-3 (active caspase-3; [1]): 0.54±0.00
amount of active caspase-3 (active caspase-3; [2]): 0.67±0.00
amount of intracellular LC3-II (LC3-II; 10 nM curaglutide as curative agent, 1.75 mM palmitic acid (autophagic dose)): 0.32±0.00
amount of intracellular LC3-II (LC3-II; 10 nM curaglutide as protector, 1.75 mM palmitic acid (autophagic dose)): 0.29±0.00
amount of cytochrome-c (cytochrome-c; [1]): 0.67±0.07
amount of cytochrome-c (cytochrome-c; [2]): 0.80±0.10

From patent publication EP3351262A1, “CURAGLUTIDE FOR IN TREATMENT OF PREDIABETES, DIABETES, OBESITY AND METABOLIC DISEASES ASSOCIATED THERETO” (Istanbul Universitesi Rektorlugu, priority 2016, dated 2018)
